What was measured:
[1] = test system: MCL1; experiment: Dog toxicology study, TaqMan mRNA in white blood cells after CDKI(7): MCL1; format: in vivo
Description: (§1) As part of a dog toxicology study, CDKI(7) was administered to dogs. White blood cells were harvested and MEPCE, MYC and MCL1 gene expression was assessed as PD markers. mRNA levels of each of these PD markers were measured by TaqMan® at various time points after CDKI(7) treatment.
(§2) The study had three groups of three dogs each. Dogs in Group 1 (#101, #102, and #103) were treated with CDKI(7) at 0.5 mg/kg, dogs in Group 2 (#104, #105, and #106) were treated at 1 mg/kg CDKI(7) and dogs in Group 3 (#107, #108, and #109) were treated at 2 mg/kg CDKI(7). Samples were collected before treatment (0 hour), 3 hours, 7 hours and 24 hours after treatment for a total of 12 samples per group. Blood samples were received frozen in QIAGEN RNA protect® Animal Blood tubes (Cat. # 76554 QIAGEN-Valencia, Calif., USA). RNA samples were extracted using the QIAGEN RNeasy® Protect Animal Blood kit (Cat. # 73224). RNA samples were quantified using the RNA Quant-iT RNA® assay from Invitrogen (Cat. # Q32852 Invitrogen—Grand Island, N.Y., USA) and read on an Invitrogen Qubit fluorometer® (Cat. # Q32857). First strand cDNA synthesis was performed on 500 ng of RNA in a reaction volume of 20 μl using a High Capacity cDNA Reverse Transcription Kit® from Applied Biosystems (Cat. # 4368814 Applied Biosystems, Carlsbad, Calif., USA). The cDNA samples were then diluted to obtain a 10 ng cDNA input for the TaqMan® reaction. TaqMan® reactions were run in triplicates using a TaqMan® Gene Expression Master Mix from Applied Biosystems (Cat. # 4369016) on an ABI 7500® machine. The 18S rRNA level was used as an endogenous control for variations in cDNA input. The relative quantification method was used to analyze the data; this method uses one sample as a calibrator sample and express mRNA levels relative to that sample. The results were expressed as RQ values (Relative Quantification) with RQ Min and RQ Max values determining a 95% confidence interval for the real RQ value. The samples were grouped according to the dose and each group was treated as a separate experiment with one of the pre-dose samples used as a calibrator sample. The logarithm of the RQ values are plotted so that increases or decreases from the initial value can be more easily represented; on a logarithmic scale: a 10-fold increase or 10-fold decrease in RQ value are represented as +1 and −1 respectively.
The MCL1 gene encodes a pro-survival factor that is often amplified in cancer and we have previously shown that its mRNA is short-lived and sensitive to CDK9 inhibition (see FIG. 2). The mRNA levels were determined by TaqMan® using the relative quantification method. The calibrator samples are dog #101 at 0 hour timepoint for the 0.5 mg/kg dose of CDKI(7), dog #104 at 0 hour timepoint for the 1 mg/kg dose and dog #107 at 0 hour timepoint for the 2 mg/kg dose. The logarithm (base 10) of the RQ values is plotted with the error bars representing the 95% confidence interval.

[2] = test system: PD markers MEPCE, MCL, MYC, HEXIM, LARP7 and WHSC2; experiment: Affymetrix U133-Plus-2 microarray gene expression profiling of CDKI treated cell lines; format: cell-based; conditions: A375 cells, FIG. 2
Description: Five cell lines were analyzed: NCI-H929, a multiple myeloma cell line (ATCC Cat. # CRL-9068); NCI-H441, a lung papillary adenocarcinoma cell line (ATCC Cat. # HTB-174); A375, a melanoma cell line (ATCC Cat. # CRL-1619); A2058, a melanoma cell line (ATCC Cat. #CRL-1147) and U-87-MG, a glioblastoma cell line (ATCC Cat. #HTB-14). Cell lines were grown in the medium recommended by ATCC and treated as follows:
NCI-H441 and A375: 0 timepoint: Untreated, harvested when compound is added to the other plates.
2 hours: DMSO, 200 nM CKDI(8) or 500 nM CKDI(8) or 500 nM CKDI(7) (3 plates each, total 12 plates).
8 hours: DMSO, 200 nM CKDI(8) or 500 nM CKDI (8) or 500 nM CKDI(7) (3 plates each, total 12 plates).
16 hours: DMSO, 200 nM CKDI(8) or 500 nM CKDI(8) or 500 nM CKDI(7) (3 plates each, total 12 plates). […]
An average expression level was determined for each probeset at each time-point and treatment condition by computing the geomean expression level across replicate tumors. […] The p-value was determined by a two-tailed t-test assuming unequal variances (Satterwaithe's approximation). […]
This is shown in FIG. 2, where A375 cells that are sensitive to CDKI were treated with CDKI(7) and the reduction of gene expression was determined at 2, 8 and 16 hours of treatment.

[3] = test system: MYC; experiment: Dog toxicology study, TaqMan mRNA in white blood cells after CDKI(7): MYC; format: in vivo
Description: as §1, §2
The MYC transcription factor is a known oncogene and previous Examples have shown that its mRNA is short-lived and sensitive to CDK9 inhibition (see FIG. 2). The MYC mRNA levels were determined by TaqMan® using the relative quantification method. The calibrator samples are dog #101 at 0 hour timepoint for the 0.5 mg/kg dose of CDKI(7), dog #104 at 0 hour timepoint for the 1 mg/kg CDKI(7) dose and dog #107 at 0 hour timepoint for the 2 mg/kg CDKI(7) dose. The logarithm (base 10) of the RQ values is plotted with the error bars representing the 95% confidence interval.

[4] = 2 mg/kg, at 3 hours, all three dogs

O=C(Nc1cc(-c2cccc(NCC3CCOCC3)n2)c(Cl)cn1)[C@@H]1CCCNC1 [CDKI(7)]
MCL1 mRNA regulation ([1]; 0.5 mg/kg): no significant down regulation
increase of MCL1 mRNA ([1]; 1 mg/kg, 7 hour time point, two out of three dogs): 2 fold
MCL1 down regulation at 7 hours ([1]; 2 mg/kg, 7 hours): not at 7 hours
MCL1 mRNA regulation ([1]; 2 mg/kg, FIG. 8): consistent down regulation
maximum down regulation of MCL1 mRNA [1, 4]: 2.7 fold
expression of the PD markers MEPCE, MCL, MYC, HEXIM, LARP7 and WHSC2 ([2]; microarray, 2, 8 and 16 hours of treatment): reduced
time point of greatest amount of reduction of MEPCE expression ([2]; microarray): 8 h
MYC mRNA regulation ([3]; 0.5 mg/kg): no significant down regulation
increase of MYC mRNA ([3]; 1 mg/kg, 3 or 7 hour time points): 2 fold
MYC mRNA regulation ([3]; 2 mg/kg, FIG. 7): consistent down regulation
maximum down regulation of MYC mRNA [3, 4]: 3.8 fold
dogs showing MYC down regulation ([3]; 2 mg/kg, at 7 hours): 2 out of three
MYC mRNA levels by 24 hours ([3]; all doses, 24 hours): trended back to pre-treatment levels
